Target: T1, Human Cytosolic PLA2 (Homo sapiens, UniProt P47712)
T1 sequence (P47712 1-749): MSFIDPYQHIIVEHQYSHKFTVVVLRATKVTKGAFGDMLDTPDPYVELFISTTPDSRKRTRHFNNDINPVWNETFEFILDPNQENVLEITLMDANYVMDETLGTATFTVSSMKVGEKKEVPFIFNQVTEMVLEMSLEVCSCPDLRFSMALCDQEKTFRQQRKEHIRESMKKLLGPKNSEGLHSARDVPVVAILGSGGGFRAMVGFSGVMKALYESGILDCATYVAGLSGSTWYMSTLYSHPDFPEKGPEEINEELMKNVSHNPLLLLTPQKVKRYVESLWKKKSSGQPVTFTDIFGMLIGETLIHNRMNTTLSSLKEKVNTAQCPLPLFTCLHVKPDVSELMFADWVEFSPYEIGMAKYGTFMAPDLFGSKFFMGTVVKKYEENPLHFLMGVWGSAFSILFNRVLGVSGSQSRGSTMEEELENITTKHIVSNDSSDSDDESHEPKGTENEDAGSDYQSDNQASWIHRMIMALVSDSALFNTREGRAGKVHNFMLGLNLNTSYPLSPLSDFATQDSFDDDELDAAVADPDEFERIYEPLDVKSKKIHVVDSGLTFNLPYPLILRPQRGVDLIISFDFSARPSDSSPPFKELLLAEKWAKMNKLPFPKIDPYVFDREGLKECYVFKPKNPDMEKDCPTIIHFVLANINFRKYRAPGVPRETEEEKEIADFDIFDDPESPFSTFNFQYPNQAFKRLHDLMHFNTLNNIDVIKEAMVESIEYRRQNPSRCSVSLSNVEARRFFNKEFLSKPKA
Experiment: Inhibition of Cytosolic Phospholipase A2 (in vitro, [14C]PC/DG sonicated liposomes)
Assay type: biochemical
Settings: 37° C., 15 minutes, pH 7.5, 1 mM calcium chloride
Method: The biological activity of the compounds of Formula I was evaluated employing an in vitro assay measuring the ability of these compounds to inhibit the activity of cytosolic phospholipase A2. The assay was performed essentially as described in R. Kramer, et al., Journal of Biological Chemistry, 266:5268-5272 (1991) with the exception that varying amounts of the compound of Formula I were added to the reaction mixture.
The substrate, sonicated liposomes containing 1-palmitoyl-2[^14 C ]arachidonoyl-sn-glycero-3-phosphocholine ([^14 C]PC, 55 mCi/mmole from NEN Research Products) and sn-1,2-dioleoylglycerol (DG, Avanti Polar Lipids, Birmingham, Ala.) at a molar ratio of 2:1, was prepared as follows. [^14 C]PC (20 nmol, 1×10^6 dpm, 50 μg/ml in toluene/ethanol) and DG (10 nmol, 100 μg/ml in chloroform) were dried under nitrogen. The lipids were dispersed in 1 ml of 150 mM sodium chloride, 50 mM HEPES, pH 7.5 (assay buffer) by sonication at 4° C. with a Microson™ probe-sonicator (Heat Systems Ultrasonics) for 4×15 seconds, with 45 second intervals. Bovine serum albumin (essentially fatty acid free, from a 100 mg/ml stock in water, Sigma) was added to a final concentration of 4 mg/ml. Samples to be assayed for cPLA2 activity were incubated with 50 μl liposomes (0.5 nmol [^14 C]PC, 50,000 dpm containing 0.25 nmol of DG) and varying amounts of the compound of Formula I, in a total volume of 0.2 ml of assay buffer containing 1 mM calcium chloride and 1 mM 2-mercaptoethanol. Incubations were carried out at 37° C. for 15 minutes and terminated by adding 2 ml of Dole's reagent (2-propanol/heptane/0.5 M sulfuric acid, 40:10:1 containing 10 μg/ml of stearic acid).
After mixing, 1.2 ml of heptane and 1 ml of water were added. The mixtures were briefly vortexed and the upper phase transferred to tubes containing 2 ml of heptane and 150 mg of Bio-Sil (Bio-Rad Laboratories) activated at 130° C. before use. The tubes were thoroughly vortexed and centrifuged (1000×g for 5 minutes). The supernatants were decanted into scintillation vials. After addition of 10 ml of a liquid scintillation cocktail (Ready Protein®, Beckman) radioactivity was counted using a Beckman liquid scintillation counter Model LS 7000. High radioactive counts correlate with enzymatic activity.
The first column provides the example number of the test inhibitor. The second column provides the concentration of the test compound (in micromolar quantities) which inhibits fifty percent of the activity of cytosolic phospholipase A2.

| Compound | IC50 [µM] |
| --- | --- |
| CCc1cc(-c2ccc(F)cc2)c(O)cc1OCCCOc1ccccc1CCC(=O)NS(C)(=O)=O [Example 2, N-Methanesulfonyl-3-(2-(3-(2-ethyl-4-(4-fluorophenyl)-5-hydroxyphenoxy)propoxy)phenyl)propionamide] | 18 |
| CCc1cc(-c2ccc(F)cc2)c(O)cc1OCCCOc1ccccc1CCC(=O)NS(=O)(=O)c1ccccc1 [Example 3, N-Phenylsulfonyl-3-(2-(3-(2-ethyl-4-(4-fluorophenyl)-5-hydroxyphenoxy)propoxy)phenyl)propionamide] | 17 |
| CCc1cc(-c2ccccc2)c(O)cc1OCCCCCC(C)(C)c1nn[nH]n1 [Example 4, 2-phenyl-4-ethyl-5-[[6-(2H-tetrazol-5-yl)-6-methylheptyl]oxy]phenol] | 39.4 |
| CCCc1c(OCCCOc2cc(O)c(-c3ccccc3)cc2CC)cccc1OC(C)C(=O)O (centres unmarked) [Example 5, 2-[3-[3-[(5-Ethyl-2-hydroxy[1, 1'-biphenyl]-4-yl)oxy]propoxy]-2-propylphenoxy]propanoic acid] | 12 |
| CCCc1c(OCCCOc2cc(O)c(-c3ccc(F)cc3)cc2CC)ccc2c1OC(C(=O)O)CC2 (centres unmarked) [Example 6, 8-Propyl-7-[3-[4-(4-fluorophenyl)-2-ethyl-5-hydroxyphenoxy]propoxy]-3,4-dihydro-2H-1-benzopyran-2-carboxylic acid] | 9 |
| CCCc1c(OCCCOc2cc(O)c(-c3ccc(F)cc3)cc2CC)cccc1Oc1ccccc1C(=O)O [Example 8, 2-[2-Propyl-3-[3-[2-ethyl-4-(4-fluorophenyl)-5-hydroxyphenoxy]propoxy]phenoxy]benzoic acid] | 12 |
| CCc1cc(-c2ccc(F)cc2)c(O)cc1OCCCCOc1ccccc1CCC(=O)O [Example 9, 3-(2-(4-(2-Ethyl-4-(4-fluorophenyl)-5-hydroxyphenoxy)-5-butyloxy)phenyl)propionic acid] | 35 |
| CCc1cc(C(C)=O)c(O)cc1OCCCCCC(C)(C)c1nn[nH]n1 [Example 10, 1-[5-ethyl-2-hydroxy-4-[[6-methyl-6-(1H-tetrazol-5-yl)heptyl]oxy]phenyl]ethanone] | 43 |
| CCc1cc(CC)c(OCCCCCC(C)(C)c2nn[nH]n2)cc1O [Example 11, 2,4-diethyl-5-[[6-methyl-6-(1H-tetrazol-5yl)heptyl]oxy]phenol] | 54 |
| CCCc1c(OCCCOc2cc(O)c(OCC)cc2CC)ccc2c1OC(C(=O)O)CC2 (centres unmarked) [Example 12, 3,4-dihydro-8-propyl-7-[3-(2-ethyl-5-hydroxy-4-ethoxy-phenoxy)propoxy]-2H-1-benzopyran-2-carboxylic acid] | 28 |
| CCCc1c(OCCCOc2cc(O)c(C(C)=O)cc2CC)ccc2c1OC(C(=O)O)CC2 (centres unmarked) [Example 13, 7-[3-(4-acetyl-2-ethyl-5-hydroxyphenoxy)propoxy]-3,4-dihydro-8-propyl-2H-1-benzopyran-2-carboxylic acid] | 13 |
| CCCc1c(OCCCOc2cc(O)c(C(C)=O)cc2CC)cccc1OC(CC)C(=O)O (centres unmarked) [Example 14, 2-[3-[3-(4-acetyl-2-ethyl-5-hydroxyphenoxy)-propoxy)-2-propylphenoxy]butanoic acid] | 14 |

Test system: neuronal cells
Experiment: not given
Settings: Neurobiology of Aging 1992; cited from earlier work

| Compound | direct toxicity (other research groups) |
| --- | --- |
| β-amyloid peptide: 4500 Dalton protein, major constituent of amyloid plaque cores; in its longest forms 42 or 43 amino acid residues | unable to consistently demonstrate direct toxicity |

Same assay, conditions: in vitro and in vivo; B. A. Yankner 1989; cited from earlier work

| Compound | neurotoxicity |
| --- | --- |
| β-amyloid peptide: 4500 Dalton protein, major constituent of amyloid plaque cores; in its longest forms 42 or 43 amino acid residues | neurotoxic in vitro and in vivo |

From patent publication US5563164A, “Phospholipase A2 inhibitors” (Eli Lilly and Company, priority 1995, dated 1996)
